# Measured values reported in PMC2944806, “HLA Class I Binding of HBZ Determines Outcome in HTLV-1 Infection” (PLoS Pathogens, 2010).
# Target: T1, HLA class I molecule A*0201 (Homo sapiens, UniProt P04439, D140Y/D185E/D98H/E176V/E277Q/G131W/G231S/I119V/I121R/I166T/I218V/L300P/L318F/N151K/N90K/P208A/P217A/Q86G/Q94H/R138H/R169H/T345S)
# T1 construct: purchased ProImmune Ltd., Oxford, UK
# Assay: not given
# Type: binding
# Details: REVEAL assay, assembly of peptide-HLA complex by ELISA with conformation-dependent anti-HLA antibody, relative to positive control peptide for that allele, comparable within an allele only
row,Sequence,"Score (experimentally measured binding affinity, % binding compared to control peptide)"
1,FMQTIRLAV [HTLV-1 nonamer peptide from Gag],95.61%
2,TLYRLHVWV [HTLV-1 nonamer peptide],73.87%
3,LLLDLPADI [HTLV-1 nonamer peptide],77.78%
4,LLQYLCSSL [HTLV-1 nonamer peptide],45.68%
5,QLLASAVLL [HTLV-1 nonamer peptide],100.23%
6,QLEGEVESL [HTLV-1 nonamer peptide],18.58%
7,TLSFPDPGL [HTLV-1 nonamer peptide],0%
8,QLGAFLTNV [HTLV-1 nonamer peptide],80.99%
9,YLYQLSPPI [HTLV-1 nonamer peptide from Tax],132.52%
10,LMGEVNYWQ [HTLV-1 nonamer peptide],12.98%
11,LLQEKEDLM [HTLV-1 nonamer peptide],46.36%
12,ILIQTQAQI [HTLV-1 nonamer peptide],79.21%
13,ILPEDCLPT [HTLV-1 nonamer peptide],15.96%
14,AAGAALIPV [HTLV-1 nonamer peptide],34.35%
15,LVEELVDGL [HTLV-1 nonamer peptide],2.64%
16,QLWLAAFAA [HTLV-1 nonamer peptide],64.37%
17,KLLQEKEDL [HTLV-1 nonamer peptide],0%
18,QLDSLISEA [HTLV-1 nonamer peptide],52.07%
19,TLGQHLPTL [HTLV-1 nonamer peptide],54.56%
20,LLITPVLQL [HTLV-1 nonamer peptide],114.87%
21,YLCSSLVAS [HTLV-1 nonamer peptide],42.17%
22,ALLGEIQWV [HTLV-1 nonamer peptide from Pol],84.64%
23,LTPPITHTT [HTLV-1 nonamer peptide],31.05%
24,LQYLCSSLV [HTLV-1 nonamer peptide],47.17%
25,TLTAWQNGL [HTLV-1 nonamer peptide],54.64%
26,LLYKISLTT [HTLV-1 nonamer peptide],78.05%
27,ELVDGLLSL [HTLV-1 nonamer peptide],25.11%
28,GIDGYTRQL [HTLV-1 nonamer peptide],28.99%
29,YISQDFLNM [HTLV-1 nonamer peptide],10.48%
30,YILWDKQIL [HTLV-1 nonamer peptide],39%

# Target: HLA class I molecule B*3501 (Homo sapiens, UniProt P01889, A329T/A93T/A95T/C349S/D201E/D98Y/E176V/E187L/E204Q/E69T/I218V/K202T/L119I/Q94N/R155S/R180L/S121R/S35A/S48A/T118I/V127L/V306I/V36M/Y140S/Y91F)
# Assay: REVEAL HLA-peptide binding assay, B*3501
# Details: assembly of peptide-HLA complex by ELISA with conformation-dependent anti-HLA antibody, relative to positive control peptide for that allele, comparable within an allele only
# Protocol: The REVEAL HLA-peptide binding assay (ProImmune Ltd., Oxford, UK) was used to quantify peptide-HLA binding. For each allele-peptide combination that was tested, assembly of peptide-HLA complexes was quantified by ELISA with a conformation-dependent anti-HLA antibody. Samples of assembling peptide-HLA complexes were taken at a defined time point and snap-frozen in liquid nitrogen prior to analysis. The assembly for each peptide-HLA complex was then compared against a positive control peptide for that allele as the percentage of assembled peptide relative to that control. We selected four HLA class I alleles and 50 HTLV-1 peptides for each allele. The allele choice was based on allele frequency in the Kagoshima database and included 2 A alleles and 2 B alleles as well as alleles for which we knew that the epitope prediction tended to be poor. The 50 HTLV-1 nonamer peptides for each allele were selected to represent a range of predicted binding affinities, from weak to strong binding peptides. They originated from 4 HTLV-1 reference strain proteins: Tax, HBZ, Gag and Polymerase.
# Note the binding score is with respect to a reference good binding peptide for each allele and therefore scores can be compared within an allele but not between alleles.
row,Sequence,"Score (experimentally measured binding affinity, % binding compared to control peptide)"
1,DPILRSLAY [HTLV-1 nonamer peptide],72.18%
2,EPGPSSYDF [HTLV-1 nonamer peptide],102.27%
3,MQELGIDGY [HTLV-1 nonamer peptide],48.1%
4,WPLLPHVIF [HTLV-1 nonamer peptide],49.66%
5,LLQEKEDLM [HTLV-1 nonamer peptide],0%
6,QAAPGSPQF [HTLV-1 nonamer peptide],86.5%
7,WTFTDGTPM [HTLV-1 nonamer peptide],137.29%
8,FPQCTILQY [HTLV-1 nonamer peptide],103.38%
9,FPTQRTSKT [HTLV-1 nonamer peptide],81.35%
10,LVEELVDGL [HTLV-1 nonamer peptide],0%
11,CPLCQDPTH [HTLV-1 nonamer peptide],36.7%
12,EPEPEEDAL [HTLV-1 nonamer peptide],28.71%
13,LTPPITHTT [HTLV-1 nonamer peptide],0%
14,LPTTLFQPA [HTLV-1 nonamer peptide from Tax],119.5%
15,WALPELQAL [HTLV-1 nonamer peptide],73.45%
16,EPEEDALLL [HTLV-1 nonamer peptide],11.92%
17,LPEDCLPTT [HTLV-1 nonamer peptide],52.2%
18,EEEKQIAEY [HTLV-1 nonamer peptide],8.99%
19,LASLLPKGY [HTLV-1 nonamer peptide],98.24%
20,ELVDGLLSL [HTLV-1 nonamer peptide],0%
21,WTINHLNVL [HTLV-1 nonamer peptide],1.04%
22,YISQDFLNM [HTLV-1 nonamer peptide],0%
23,CPINYSLLA [HTLV-1 nonamer peptide],102.68%
24,YILWDKQIL [HTLV-1 nonamer peptide],0%

# Target: T2, HLA class I molecule A*2402 (Homo sapiens, UniProt P04439, D101N/D140Y/D185E/E176V/E190D/F33S/G103R/G107R/I119L/I121M/I306V/K335N/L105A/L180Q/L300P/N151K/N90K/Q86E/Q94H/R106L/R138H/R89G/T104I/T345S/V100E/W191G/Y123F)
# T2 construct: purchased ProImmune Ltd., Oxford, UK
# Assay: not given
# Type: binding
# Details: REVEAL assay, assembly of peptide-HLA complex by ELISA with conformation-dependent anti-HLA antibody, relative to positive control peptide for that allele, comparable within an allele only
row,Sequence,"Score (experimentally measured binding affinity, % binding compared to control peptide)"
1,QYLCSSLVA [HTLV-1 nonamer peptide],4.85%
2,PYKRIEELL [HTLV-1 nonamer peptide],99.06%
3,KYKNTLYRL [HTLV-1 nonamer peptide],124.9%
4,EYQQLWLAA [HTLV-1 nonamer peptide],2.7%
5,LWLAAFAAL [HTLV-1 nonamer peptide],30.63%
6,SYGLLCQTI [HTLV-1 nonamer peptide],114.37%
7,EKAVLDGLL [HTLV-1 nonamer peptide],0%
8,VLQSSSFIF [HTLV-1 nonamer peptide],82.42%
9,DLMGEVNYW [HTLV-1 nonamer peptide],62.28%
10,PYHAFVERL [HTLV-1 nonamer peptide],113.04%
11,GYTRQLEGE [HTLV-1 nonamer peptide],35.37%
12,SWASILQGL [HTLV-1 nonamer peptide],123.67%
13,VSCPEDLLV [HTLV-1 nonamer peptide],9.6%
14,WQGRLEAMW [HTLV-1 nonamer peptide],2.54%
15,KYLYHYLRT [HTLV-1 nonamer peptide],2.63%
16,VFTLSPVII [HTLV-1 nonamer peptide],97.21%
17,SFLLSHGLI [HTLV-1 nonamer peptide],79.27%
18,TTPNIPPSF [HTLV-1 nonamer peptide],0.43%
19,KYTLQSYGL [HTLV-1 nonamer peptide],104.78%
20,IWQGDITHF [HTLV-1 nonamer peptide],64.83%
21,KQIAEYLKR [HTLV-1 nonamer peptide],3.56%
22,TWPLLPHVI [HTLV-1 nonamer peptide],118.19%
